Counter-ions that a name gives are not always drawn.
What was measured:
[1] = test system: normotensive Wistar rats after pretreatment with Ecolid; assay: Blood pressure testing after blockade of autonomic nerve tracts with Ecolid; assay type: in vivo, rat; conditions: Table 2; for Effect pressure/duration: duration: assessment class of duration; for Effect pressure/duration: duration / Effect pressure/duration: pressure: after Ecolid; for Effect pressure/duration: duration / Effect pressure/duration: pressure / Heart rate / Duration: 0.5 mg/kg i.v.; for Effect pressure/duration: pressure: assessment class of pressure fall; for Heart rate: change shown as arrow; for Heart rate / Duration: rats pretreated with Ecolid; for Diastol. pressure / Mean pressure / Systol. pressure: effect (fall) on arterial blood pressure, Wistar rats pretreated with Ecolid 0.5 mg/kg i.v., test substance 0.5 mg/kg i.v.
Description: Ecolid is a ganglionic blocker which competitively blocks the postsynaptic cholinergic (nicotinergic) receptors in the autonomic ganglia. This interrupts neurotransmission in the ganglia in both the para-sympathetic and sympathetic regions of the autonomic nervous system. The consequence thereof is, inter alia, a fall in blood pressure. It is possible in this way to differentiate central and peripheral (i.e. direct points of action on the smooth muscles) effects.
The experimental animals used were male Wistar rats with a BW of 300-450 g. The rats are anesthetized immediately before the experiment with 70 mg/kg inactin i.v. PE tubes are tied into the carotid artery and femoral vein.
(§1) To maintain the blood pressure and to prevent formation of thrombi in the PE tubes of the blood vessels, each hour 2.5 ml of heparinized 0.9% strength NaCl solution are infused through the femoral vein and 1.2 ml through the carotid artery.
Before testing the ergoline derivatives, the experimental animals were treated with Ecolid (dose: 0.5 mg/kg, i.v.).
(§2) The ergoline derivatives are administered i.v. through the femoral vein as 5 percent EtOH/NaCl (0.9%) solution, 1 ml/kg in a dosage of 0.5 mg/kg test substance.
The time stated in the table corresponds to the period between administration of Ecolid and injection of the test substances.

[2] = test system: normotensive Wistar rats; assay: Invasive blood pressure measurement in anesthetized rats, i.v. administration; assay type: in vivo, rat
Method: Male Wistar rats with a body weight (BW) of 300-450 g were used as experimental animals. The rats are anesthetized immediately before the experiment with 50 mg/kg pentobarbital Na intraperitoneally (i.p.) or 70 mg/kg inactin i.v. PE tubes are tied into the carotid artery and femoral vein.
as §1
The arterial blood pressure is measured invasively using a PONEMAH hemodynamic analyzer (HSE, March, Germany). Via the tube in the carotid artery, the arterial blood pressure is mechanoelectrically converted in a Statham transducer (ISOTEC), amplified in a Plugsys (DBA module, type 660), digitized in an A/D converter and input into the PC memory over defined time intervals. The values in the memory are then treated with an adapted algorithm in order to establish the blood pressure parameters to be calculated for heart rate, systolic, diastolic and mean blood pressure.
as §2

[3] = assessment class of duration, 0.5 mg/kg i.v., Table 1.1
[4] = assessment class of pressure fall, 0.5 mg/kg i.v., Table 1.1
[5] = change shown as arrow, Wistar rats, 0.5 mg/kg i.v., Table 1.1
[6] = duration of blood pressure effect, Wistar rats, 0.5 mg/kg i.v., Table 1.1
[7] = effect (fall) on arterial blood pressure, anesthetized Wistar rats, 0.5 mg/kg i.v., Table 1.1
[8] = assessment class of duration, 0.5 mg/kg i.v., Table 1.2
[9] = assessment class of pressure fall, 0.5 mg/kg i.v., Table 1.2
[10] = change shown as arrow, Wistar rats, 0.5 mg/kg i.v., Table 1.2
[11] = duration of blood pressure effect, 0.5 mg/kg i.v., Table 1.2
[12] = effect (fall) on arterial blood pressure, Wistar rats, 0.5 mg/kg i.v., Table 1.2

| Structure (SMILES) | Effect pressure/duration: duration [1] | Effect pressure/duration: pressure [1] | Heart rate [1] | Diastol. pressure [1] | Mean pressure [1] | Systol. pressure [1] | Effect pressure/duration: duration [2, 3] | Effect pressure/duration: pressure [2, 4] | Heart rate [2, 5] | Duration [2, 6] | Diastol. pressure [2, 7] | Mean pressure [2, 7] | Systol. pressure [2, 7] | other results |
| --- | --- | --- | --- | --- | --- | --- | --- | --- | --- | --- | --- | --- | --- | --- |
| CN1CC(CNC(=O)C2CCC(C(=O)NCc3cccc(CN)c3)CC2)CC2c3cccc4[nH]cc(c34)CC21.O=C(O)C(F)(F)F.O=C(O)C(F)(F)F (mixture of isomers) [Substance 9703131] | ↓↓↓/↓↓↓ (> 30 min) | ↓↓↓/↓↓↓ (> 30%) | → | 40.4% | 32.4% | 32.9% | ↓↓↓/↓↓↓ (>30 min) | ↓↓↓/↓↓↓ (>30%) | → | >240 min | 55.2% | 51.6% | 47.5% | Duration [1]: >60 min |
| CN1C[C@H](CN2CCC(=O)NC2=O)C[C@@H]2c3cccc4[nH]cc(c34)C[C@H]21 [Dihydro-1-[[6-methyl-ergolin-8b-yl]-methyl]2,4-(1H, 3H)-pyrimidinedione, reference compound] | →/→ (no effect to 5%) | →/→ (no effect to 5%) | → | 0% | 0% | 0% | ↓ (up to 10 min) | ↓↓↓ (>30%) | → | ca 10 min | 75.9% | 72.3% | 70.9% | Duration [1]: 0 min |
| C[N+](C)(C)CC[N+]1(C)Cc2c(Cl)c(Cl)c(Cl)c(Cl)c2C1.[Cl-].[Cl-] [Ecolid, reference compound] | ↓↓↓/↓↓↓ (> 30 min) | ↓↓↓/↓↓↓ (> 30%) | → | 54.7% | 50.4% | 52.6% |  |  |  |  |  |  |  |  |
| CN1CC(CNC(=O)CCCCC(=O)NCc2cccc(CN)c2)CC2c3cccc4[nH]cc(c34)CC21.O=C(O)C(F)(F)F.O=C(O)C(F)(F)F (stereo not shown) [Substance 9703123] |  |  |  |  |  |  |  |  |  |  |  |  |  | Diastol. pressure ([2]; rat, in vivo, iv, 0.5 mg/kg): 44.3%; Duration ([2]; rat, in vivo, iv, 0.5 mg/kg): 7 min; Effect pressure/duration: duration ([2]; rat, in vivo, iv, 0.5 mg/kg): ↓↓↓/↓ (key: (↓): < 5 min; ↓: up to 10 min; ↓↓: up to 30 min; ↓↓↓: >30 min); Effect pressure/duration: pressure ([2]; rat, in vivo, iv, 0.5 mg/kg): ↓↓↓/↓ (key: →: no effect to 5%; (↓): to 10%; ↓: to 20%; ↓↓: to 30%; ↓↓↓: >30%); Heart rate ([2]; rat, in vivo, iv, 0.5 mg/kg): →; Mean pressure ([2]; rat, in vivo, iv, 0.5 mg/kg): 43.4%; Systol. pressure ([2]; rat, in vivo, iv, 0.5 mg/kg): 38.0% |
| CN1CC(CNC(=O)c2ccc(C(=O)NCCCN3CCN(CCCN)CC3)cc2)CC2c3cccc4[nH]cc(c34)CC21.O=C(O)C(F)(F)F.O=C(O)C(F)(F)F.O=C(O)C(F)(F)F.O=C(O)C(F)(F)F (stereo not shown) [Substance 9703125] |  |  |  |  |  |  |  |  |  |  |  |  |  | Diastol. pressure ([2]; rat, in vivo, iv, 0.5 mg/kg): 14.0%; Duration ([2]; rat, in vivo, iv, 0.5 mg/kg): 90 min; Effect pressure/duration: duration ([2]; rat, in vivo, iv, 0.5 mg/kg): ↓/↓↓↓ (key: (↓): < 5 min; ↓: up to 10 min; ↓↓: up to 30 min; ↓↓↓: >30 min); Effect pressure/duration: pressure ([2]; rat, in vivo, iv, 0.5 mg/kg): ↓/↓↓↓ (key: →: no effect to 5%; (↓): to 10%; ↓: to 20%; ↓↓: to 30%; ↓↓↓: >30%); Heart rate ([2]; rat, in vivo, iv, 0.5 mg/kg): →; Mean pressure ([2]; rat, in vivo, iv, 0.5 mg/kg): 13.7%; Systol. pressure ([2]; rat, in vivo, iv, 0.5 mg/kg): 13.1% |
| CN1CC(CNC(=O)c2ccc(C(=O)NCc3cccc(CN)c3)cc2)CC2c3cccc4[nH]cc(c34)CC21.O=C(O)C(F)(F)F.O=C(O)C(F)(F)F (stereo not shown) [Substance 9703126] | ↓↓↓/↓↓↓ (> 30 min) | ↓↓↓/↓↓↓ (> 30%) | → | 48.7% | 43.7% | 36.4% | ↓↓↓/↓↓↓ (>30 min) | ↓↓↓/↓↓↓ (>30%) | → | >60 min | 63.0% | 60.0% | 55.0% | Duration [1]: >120 min |
| Cc1nc(C)c(C(=O)NC2CCC(N)CC2)cc1C(=O)NCC1CC2c3cccc4[nH]cc(c34)CC2N(C)C1.O=C(O)C(F)(F)F.O=C(O)C(F)(F)F (stereo not shown) [Substance 9703137] |  |  |  |  |  |  | ↓↓↓/↓↓↓ (>30 min) | ↓↓↓/↓↓↓ (>30%) | → | ca 95 min | 64.8% | 60.2% | 56.5% |  |
| CN1CC(CNC(=O)c2ccc(SSc3ccc(C(=O)NC4CCC(N)CC4)cn3)nc2)CC2c3cccc4[nH]cc(c34)CC21.O=C(O)C(F)(F)F.O=C(O)C(F)(F)F (stereo not shown) [Substance 9703155] |  |  |  |  |  |  |  |  |  |  |  |  |  | Effect pressure/duration: duration [2, 8]: ↓↓↓ (> 30 min); Effect pressure/duration: pressure [2, 9]: ↓↓ (to 30%); Heart rate [2, 10]: →; Duration [2, 11]: ca 60 min; Diastol. pressure [2, 12]: 25.9%; Mean pressure [2, 12]: 26.9%; Systol. pressure [2, 12]: 24.7% |
| CN1CC(CNC(=O)c2c(F)c(F)c(F)c(F)c2C(=O)NC2CCC(N)CC2)CC2c3cccc4[nH]cc(c34)CC21.O=C(O)C(F)(F)F.O=C(O)C(F)(F)F (stereo not shown) [Substance 9703156] |  |  |  |  |  |  |  |  |  |  |  |  |  | Effect pressure/duration: duration [2, 8]: ↓↓ (up to 30 min); Effect pressure/duration: pressure [2, 9]: ↓↓↓ (> 30%); Heart rate [2, 10]: →; Duration [2, 11]: 13 min; Diastol. pressure [2, 12]: 43.4%; Mean pressure [2, 12]: 38.6%; Systol. pressure [2, 12]: 33.4% |
| CN1CC(CNC(=O)C(F)(F)C(F)(F)C(=O)NC2CCC(N)CC2)CC2c3cccc4[nH]cc(c34)CC21.O=C(O)C(F)(F)F.O=C(O)C(F)(F)F (stereo not shown) [Substance 9703157] |  |  |  |  |  |  |  |  |  |  |  |  |  | Effect pressure/duration: duration [2, 8]: ↓↓ (up to 30 min); Effect pressure/duration: pressure [2, 9]: ↓↓↓ (> 30%); Heart rate [2, 10]: →; Duration [2, 11]: 30 min; Diastol. pressure [2, 12]: 49.6%; Mean pressure [2, 12]: 48.8%; Systol. pressure [2, 12]: 46.6% |
| O=C(O)C(F)(F)F [TFA (equimolar), trifluoroacetic acid, reference compound] |  |  |  |  |  |  | (↓)/(↓) (< 5 min) | (↓)/(↓) (to 10%) | → | >1 min | 5.1% | 4.6% | 4.3% |  |

Reference: patent US6358967B1, “Ergoline amine derivatives with blood pressure lowering effect” (priority 1998, dated 2002)
